We go through eleven molecules from US8497245B2, “Trypsin-like serine protease inhibitors, their preparation and use as selective inhibitors of the clotting factors IIa and Xa” (The Medicines Company (Leipzig) GmbH, priority 2010, dated 2013).

Structures can show the parent of a compound that is named as a salt.

Common to all, as to format: biochemical
The target of assay [1] is T1, Human plasma kallikrein (h PK) (Homo sapiens, UniProt P03952).
T1 construct: purchased Enzyme Research Laboratories
The assay can be described thus: Inhibition of human plasma kallikrein (reference enzyme). The conditions noted are these: S2302 substrate. The method in brief:
(§1)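 Abs 405 nm (p-NA release from chromogenic substrate) with purified enzyme; equilibrium rates fit to competitive-inhibition equation → Ki, nM; mean of ≥3 runs.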

The target of assay [2] is T2, Human urokinase type plasminogen activator (h u-PA) (Homo sapiens, UniProt P00749).
T2 construct: purchased MEDAC GmbH Urokinase HS medac
Briefly: Inhibition of human urokinase type plasminogen activator (reference enzyme). The conditions noted are these: H-Glu-Gly-Arg-pNA substrate. The method in brief: as §1

In assay [3] the target is T3, Human tissue-type plasminogen activator (h t-PA) (Homo sapiens, UniProt P00750).
T3 construct: purchased Boehringer Ingelheim Actilyse
The assay can be described thus: Inhibition of human tissue-type plasminogen activator (reference enzyme). The conditions noted are these: Pefachrome tPA substrate; read-out: Ki h t-PA. On the procedure:
The equilibrium rates were used to calculate the inhibitor/enzyme dissociation constant (Ki values) by parameter fitting in accordance with the rate equation for competitive inhibition using GraFit (version 4 from Erithacus).
Dissociation constants were calculated as described herein.

The target in assay [4] is T4, Subcomponent "s" of Human Complement Component 1 (h C1s) (Homo sapiens, UniProt P09871).
T4 construct: purchased Calbiochem
T4 sequence (P09871 438-688 limits assumed): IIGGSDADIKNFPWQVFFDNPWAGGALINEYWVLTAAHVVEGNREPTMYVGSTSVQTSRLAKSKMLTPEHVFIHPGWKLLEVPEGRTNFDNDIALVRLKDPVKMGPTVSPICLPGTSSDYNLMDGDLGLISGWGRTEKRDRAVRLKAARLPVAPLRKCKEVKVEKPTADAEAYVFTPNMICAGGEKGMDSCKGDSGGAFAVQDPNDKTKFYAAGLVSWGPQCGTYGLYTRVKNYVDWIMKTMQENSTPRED
T4 sequence (P09871 16-437 partner limits assumed): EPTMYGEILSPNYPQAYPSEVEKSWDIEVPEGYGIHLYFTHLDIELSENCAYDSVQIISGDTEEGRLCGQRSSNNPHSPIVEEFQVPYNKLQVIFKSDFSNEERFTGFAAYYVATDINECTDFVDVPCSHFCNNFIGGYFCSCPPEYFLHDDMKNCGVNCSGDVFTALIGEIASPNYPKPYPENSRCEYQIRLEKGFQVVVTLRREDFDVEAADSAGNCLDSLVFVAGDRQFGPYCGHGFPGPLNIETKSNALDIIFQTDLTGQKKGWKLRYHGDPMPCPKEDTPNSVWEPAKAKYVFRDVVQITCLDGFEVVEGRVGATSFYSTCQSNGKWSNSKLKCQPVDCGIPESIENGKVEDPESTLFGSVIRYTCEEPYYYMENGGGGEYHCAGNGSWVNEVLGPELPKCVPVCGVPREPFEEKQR
Briefly: Inhibition of human C1s (reference enzyme). The conditions noted are these: S-2314 substrate; read-out: Ki h Cls. In a few lines: as §1

The target in assay [5] is T5, Subcomponent "r" of Human Complement Component 1 (h C1r) (Homo sapiens, UniProt P00736).
T5 construct: purchased Calbiochem
T5 sequence (P00736 464-705 limits assumed): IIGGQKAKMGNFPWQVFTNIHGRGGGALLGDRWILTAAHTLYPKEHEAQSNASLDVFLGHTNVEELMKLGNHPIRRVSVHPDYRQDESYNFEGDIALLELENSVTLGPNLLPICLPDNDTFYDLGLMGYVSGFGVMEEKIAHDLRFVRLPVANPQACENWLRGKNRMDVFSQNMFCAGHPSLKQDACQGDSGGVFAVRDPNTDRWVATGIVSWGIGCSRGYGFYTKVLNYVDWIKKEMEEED
T5 sequence (P00736 18-463 partner limits assumed): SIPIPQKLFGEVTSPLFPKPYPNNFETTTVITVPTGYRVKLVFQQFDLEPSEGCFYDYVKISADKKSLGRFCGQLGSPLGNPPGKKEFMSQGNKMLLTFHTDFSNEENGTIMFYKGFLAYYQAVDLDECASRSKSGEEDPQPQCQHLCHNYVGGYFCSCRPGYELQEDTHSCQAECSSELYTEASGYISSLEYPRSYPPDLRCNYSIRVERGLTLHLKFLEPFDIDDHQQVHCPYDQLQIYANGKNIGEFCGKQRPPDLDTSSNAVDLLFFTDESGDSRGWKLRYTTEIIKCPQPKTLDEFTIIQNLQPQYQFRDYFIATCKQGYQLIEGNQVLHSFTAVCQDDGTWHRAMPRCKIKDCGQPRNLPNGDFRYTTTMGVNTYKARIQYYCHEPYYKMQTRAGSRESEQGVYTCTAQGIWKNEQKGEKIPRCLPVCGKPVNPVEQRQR
Briefly: Inhibition of human C1r (reference enzyme). The conditions noted are these: S-2314 substrate; read-out: Ki h Clr. In a few lines: as §1

The target of assay [6] is T6, Human plasmin (h plasmin) (Homo sapiens, UniProt P00747).
T6 construct: purchased Calbiochem
The assay can be described thus: Inhibition of human plasmin (reference enzyme). The conditions noted are these: Chromozym PL substrate. In a few lines:
as §1

In assay [7] the target is T7, Human Activated Protein C (h aPC) (Homo sapiens, UniProt P04070).
T7 construct: purchased Enzyme Research Laboratories
The assay can be described thus: Inhibition of human activated protein C (reference enzyme). To be noted: Pefachrome PCa substrate. The method in brief: as §1

In another assay the target is T8, human Factor Xa (Homo sapiens, UniProt P00742).
T8 construct: human Factor Xa from Enzyme Research Laboratories; purchased Enzyme Research Laboratories
Briefly: Inhibition constants for human factor Xa, chromogenic substrate assay. The conditions noted are these: 25° C., Pefachrome FXa substrate, average of at least three determinations; read-out: Ki h FXa. In a few lines: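 Inhibitor/enzyme dissociation constants reflect competitive-model fits of equilibrium rates, averaged over at least three determinations. Rates were taken from the absorbance change at 405 nm as p-nitroaniline was cleaved from substrate by purified thrombin or factor Xa in 0.05 M Tris buffer, pH 8.0.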

Assay [8] concerns the target T9, Human urinary kallikrein (h uKK) (Homo sapiens, UniProt P06870).
T9 construct: purchased Lee Biosolutions
Briefly: Inhibition of human urinary kallikrein (reference enzyme). To be noted: S-2266 substrate. In a few lines: as §1

The target of assay [9] is T10, human factor IIa (human alpha-thrombin) (Homo sapiens, UniProt P00734).
T10 construct: human alpha-thrombin from Enzyme Research Laboratories; purchased Enzyme Research Laboratories
Briefly: Inhibition constants for human factor IIa, chromogenic substrate assay. To be noted: 25° C., Pefachrome tPA substrate, average of at least three determinations; read-out: Ki h FIIa. In a few lines: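 Absorbance at 405 nm tracked p-nitroaniline liberated by each purified enzyme (human thrombin or human factor Xa) in pH 8.0 TBS containing 0.154 M NaCl and 2% ethanol. Equilibrium rates were fitted by competitive-inhibition kinetics to give Ki; values are means of ≥3 runs.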

T8 sequence (P00742 235-488 limits assumed): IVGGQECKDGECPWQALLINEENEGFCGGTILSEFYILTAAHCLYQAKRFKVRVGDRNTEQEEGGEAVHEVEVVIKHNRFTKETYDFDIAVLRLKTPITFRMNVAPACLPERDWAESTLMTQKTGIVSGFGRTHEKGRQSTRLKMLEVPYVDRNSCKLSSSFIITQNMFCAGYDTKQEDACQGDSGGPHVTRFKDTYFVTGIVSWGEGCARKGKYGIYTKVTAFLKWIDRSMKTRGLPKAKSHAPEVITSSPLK
T8 sequence (P00742 41-179 partner limits assumed): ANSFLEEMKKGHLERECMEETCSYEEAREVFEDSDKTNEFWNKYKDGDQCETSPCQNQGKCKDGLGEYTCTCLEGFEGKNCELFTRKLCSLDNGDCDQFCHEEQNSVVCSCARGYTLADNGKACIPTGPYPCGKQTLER
T7 sequence (P04070 212-450 limits assumed): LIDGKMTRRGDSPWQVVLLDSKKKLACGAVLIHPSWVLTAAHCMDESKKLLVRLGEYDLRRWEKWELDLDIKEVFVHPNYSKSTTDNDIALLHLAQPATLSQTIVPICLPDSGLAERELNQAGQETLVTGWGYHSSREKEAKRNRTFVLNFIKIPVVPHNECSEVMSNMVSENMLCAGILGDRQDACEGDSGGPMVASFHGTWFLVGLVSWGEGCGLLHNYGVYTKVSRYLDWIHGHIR
T7 sequence (P04070 43-197 partner limits assumed): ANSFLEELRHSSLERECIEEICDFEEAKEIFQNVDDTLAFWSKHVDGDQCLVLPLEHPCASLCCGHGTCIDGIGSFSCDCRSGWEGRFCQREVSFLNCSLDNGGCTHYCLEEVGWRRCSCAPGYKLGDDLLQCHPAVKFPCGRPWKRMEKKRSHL
T9 sequence (P06870 25-262): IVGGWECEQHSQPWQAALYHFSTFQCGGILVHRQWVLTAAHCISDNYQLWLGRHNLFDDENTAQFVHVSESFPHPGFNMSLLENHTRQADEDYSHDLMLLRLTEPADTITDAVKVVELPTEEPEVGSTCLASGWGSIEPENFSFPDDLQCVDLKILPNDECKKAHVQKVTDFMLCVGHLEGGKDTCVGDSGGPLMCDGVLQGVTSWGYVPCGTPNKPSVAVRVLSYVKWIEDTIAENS
T6 sequence (P00747 581-810 limits assumed): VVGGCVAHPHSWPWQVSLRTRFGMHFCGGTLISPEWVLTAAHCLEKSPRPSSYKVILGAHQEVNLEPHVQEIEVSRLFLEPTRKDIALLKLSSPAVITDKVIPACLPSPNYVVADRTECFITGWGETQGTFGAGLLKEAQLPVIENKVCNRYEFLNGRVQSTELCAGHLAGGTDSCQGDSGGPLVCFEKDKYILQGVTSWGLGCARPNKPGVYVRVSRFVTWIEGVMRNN
T6 sequence (P00747 97-580 partner limits assumed): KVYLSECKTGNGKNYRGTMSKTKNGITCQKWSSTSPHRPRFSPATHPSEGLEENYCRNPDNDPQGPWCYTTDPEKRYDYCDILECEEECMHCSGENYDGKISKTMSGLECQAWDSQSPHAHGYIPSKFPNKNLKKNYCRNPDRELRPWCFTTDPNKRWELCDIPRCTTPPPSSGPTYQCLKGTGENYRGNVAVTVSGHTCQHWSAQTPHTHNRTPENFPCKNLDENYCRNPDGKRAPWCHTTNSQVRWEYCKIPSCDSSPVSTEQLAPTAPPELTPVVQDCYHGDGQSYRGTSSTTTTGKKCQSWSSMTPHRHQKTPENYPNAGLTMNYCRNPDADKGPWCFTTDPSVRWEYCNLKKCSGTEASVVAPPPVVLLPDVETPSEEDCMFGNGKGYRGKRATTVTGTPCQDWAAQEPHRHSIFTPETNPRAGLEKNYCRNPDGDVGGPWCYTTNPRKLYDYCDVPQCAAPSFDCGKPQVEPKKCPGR
T3 sequence (P00750 36-562): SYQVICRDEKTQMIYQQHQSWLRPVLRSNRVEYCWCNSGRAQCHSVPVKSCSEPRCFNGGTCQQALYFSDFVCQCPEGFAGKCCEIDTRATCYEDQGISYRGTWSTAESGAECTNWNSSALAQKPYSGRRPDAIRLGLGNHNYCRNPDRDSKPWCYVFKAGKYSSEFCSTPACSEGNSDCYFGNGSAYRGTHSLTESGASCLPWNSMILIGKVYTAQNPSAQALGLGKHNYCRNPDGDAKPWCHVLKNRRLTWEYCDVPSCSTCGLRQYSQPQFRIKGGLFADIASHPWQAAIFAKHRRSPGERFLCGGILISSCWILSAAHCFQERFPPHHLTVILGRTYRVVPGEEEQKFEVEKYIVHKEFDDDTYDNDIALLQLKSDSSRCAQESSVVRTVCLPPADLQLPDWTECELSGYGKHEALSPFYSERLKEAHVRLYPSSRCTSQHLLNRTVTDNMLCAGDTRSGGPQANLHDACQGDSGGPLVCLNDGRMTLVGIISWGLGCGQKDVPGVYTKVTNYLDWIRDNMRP
T1 sequence (P03952 391-638 limits assumed): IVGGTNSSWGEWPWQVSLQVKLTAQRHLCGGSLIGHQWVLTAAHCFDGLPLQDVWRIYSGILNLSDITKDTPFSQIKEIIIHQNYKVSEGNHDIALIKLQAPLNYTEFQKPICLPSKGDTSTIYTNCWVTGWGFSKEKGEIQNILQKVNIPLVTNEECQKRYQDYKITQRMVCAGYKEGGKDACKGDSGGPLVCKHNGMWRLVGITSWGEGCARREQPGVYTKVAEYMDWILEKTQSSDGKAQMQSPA
T1 sequence (P03952 20-390 partner limits assumed): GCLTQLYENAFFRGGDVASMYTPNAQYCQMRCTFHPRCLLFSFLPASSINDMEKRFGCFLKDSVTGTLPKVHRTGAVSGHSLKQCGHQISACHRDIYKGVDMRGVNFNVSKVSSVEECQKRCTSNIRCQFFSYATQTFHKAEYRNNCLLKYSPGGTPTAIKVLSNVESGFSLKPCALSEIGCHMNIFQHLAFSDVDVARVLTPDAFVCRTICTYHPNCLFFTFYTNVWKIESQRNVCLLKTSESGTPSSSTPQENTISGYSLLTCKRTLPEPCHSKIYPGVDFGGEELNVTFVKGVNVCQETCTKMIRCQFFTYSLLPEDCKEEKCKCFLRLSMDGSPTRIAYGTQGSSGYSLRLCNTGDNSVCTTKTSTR

Broadly, the Ki is a measure of affinity in units of concentration, obtained from inhibition or displacement. `NCc1ccc(Cl)cc1CNC(=O)[C@@H]1CCCN1C(=O)[C@@H](CCC(=O)N1CCOCC1)NS(=O)(=O)Cc1ccccc1` [Compound 2.1, Bzls-D-Glu(morpholino)-L-Pro-Amb(2-AMe-5-Cl)×1 TFA]: the Ki in assay [1] is 1.86 µM; in [2], over 40 µM; in assay [3], over 20 µM; in [4], over 80 µM; in assay [5], over 200 µM; in [6] it was over 28 µM. Also, the Ki in assay [7] was over 100 µM; at human Factor Xa it was 0.0011 µM; in assay [8], over 60 µM; in [9], 0.00043 µM.

As to `NCc1ccc(Cl)cc1CNC(=O)[C@@H]1CCCN1C(=O)[C@@H](CC(=O)N1CC[C@H](O)C1)NS(=O)(=O)Cc1ccccc1` [Compound 2.10], the Ki was 0.83 µM in [1]; over 100 µM in assay [2]; over 10 µM in assay [3]; over 20 µM in [4]; over 20 µM in assay [5]; over 10 µM in assay [6]. In addition, the Ki in assay [7] is over 20 µM; at human Factor Xa it was 0.0011 µM; in assay [8], over 100 µM; in assay [9], 0.0009 µM.

For the molecule `CN(C(=O)CC[C@@H](NS(=O)(=O)Cc1ccccc1)C(=O)N1CCC[C@H]1C(=O)NCc1cc(Cl)ccc1CN)C1CCNCC1` [Compound 2.27], the Ki in assay [1] was 1.65 µM; in assay [2], over 100 µM; in assay [3], over 100 µM; in assay [4], over 100 µM; in [5] it was over 100 µM; in [6], over 10 µM. Also, the Ki in assay [7] was over 50 µM; at human Factor Xa, 0.018 µM; in [8] it was over 100 µM; in assay [9] it was 0.0008 µM.

With `CN(CC1CCOCC1)C(=O)C[C@@H](NS(=O)(=O)Cc1ccccc1)C(=O)N1CCC[C@H]1C(=O)NCc1cc(Cl)ccc1CN` [Compound 2.47, Bzls-D-Asp((tetrahydro-2H-pyran-4-yl)-N-methylmethanamine)-L-Pro-Amb(2-AMe-5-Cl)×2 TFA], the Ki in [1] was 0.304 µM; in [2], over 100 µM; in [3] it was over 50 µM; in [4] it was over 100 µM; in assay [5] it was over 10 µM; in assay [6], over 15 µM. Moreover, the Ki in [7] is over 100 µM; on human Factor Xa, 0.002 µM; in assay [8], over 20 µM; in assay [9], 0.00032 µM.

As to `N[C@H]1C[C@@H](C(=O)NCc2cc(Cl)ccc2-n2cnnn2)N(C(=O)[C@@H](CCC(=O)N2CCOCC2)NS(=O)(=O)Cc2ccccc2)C1` [Compound 2.23], the Ki was 0.39 µM in assay [1]; over 100 µM in assay [2]; 4.8 µM in [3]; over 70 µM in [4]; over 40 µM in assay [5]; 1.99 µM in assay [6]. The Ki in assay [7] is 6.7 µM; on human Factor Xa, 0.00032 µM; in assay [8], over 50 µM; in assay [9], 0.0067 µM.

Take `NCc1ccc(Cl)cc1CNC(=O)[C@@H]1CNCCN1C(=O)[C@@H](CC(=O)N1CCCCC1)NS(=O)(=O)Cc1ccccc1` [Compound 2.13]: the Ki in assay [1] was 8.56 µM; in assay [2], over 100 µM; in assay [3] it was over 40 µM; in assay [4], over 60 µM; in assay [5], over 30 µM; in assay [6] it was over 100 µM. Moreover, the Ki was over 30 µM in assay [7], 0.0014 µM on human Factor Xa, over 20 µM in assay [8] and 0.0051 µM in [9].

For the molecule `NCc1ccc(Cl)cc1CNC(=O)[C@@H]1C[C@@H](N)CN1C(=O)[C@@H](CC(=O)N1CCCCC1)NS(=O)(=O)Cc1ccccc1` [Compound 2.7], the Ki in assay [1] was 0.322 µM; in [2] it was over 50 µM; in assay [3], 15.3 µM; in [4], over 30 µM; in assay [5], over 20 µM; in assay [6], 11.9 µM. For the same molecule, the Ki is over 50 µM in assay [7], 0.00018 µM on human Factor Xa, over 50 µM in assay [8] and 0.00057 µM in [9].

With `CN(CC1CCNCC1)C(=O)C[C@@H](NS(=O)(=O)Cc1ccccc1)C(=O)N1CCC[C@H]1C(=O)NCc1cc(Cl)ccc1CN` [Compound 2.16], the Ki in [1] was 0.417 µM; in [2], over 100 µM; in [3] it was over 50 µM; in [4], over 50 µM; in assay [5], over 10 µM; in [6], over 5 µM. The Ki was over 100 µM in assay [7], 0.0015 µM at human Factor Xa, over 50 µM in assay [8] and 0.0003 µM in assay [9].

Take `NCc1ccc(Cl)cc1CNC(=O)[C@@H]1CCCN1C(=O)[C@@H](CC(=O)N1CC[C@@H](O)C1)NS(=O)(=O)Cc1ccccc1` [Compound 2.9]: the Ki is 0.93 µM in [1]; over 100 µM in assay [2]; over 20 µM in [3]; over 50 µM in [4]; over 50 µM in assay [5]; over 10 µM in assay [6]. Also, the Ki was over 25 µM in [7], 0.0025 µM on human Factor Xa, over 200 µM in assay [8] and 0.0012 µM in assay [9].

In the case of `NCc1ccc(Cl)cc1CNC(=O)[C@@H]1CCCN1C(=O)[C@@H](CC(=O)O)NS(=O)(=O)Cc1ccccc1` [Compound 2.46], the Ki in assay [1] was over 50 µM; in [2] it was over 50 µM; in [3], over 50 µM; in [4] it was over 50 µM; in [5], over 100 µM; in assay [6], over 10 µM. The Ki in [7] is over 40 µM; at human Factor Xa, 1.32 µM; in [8], over 20 µM; in assay [9], 0.0122 µM.

On to `NCc1ccc(Cl)cc1CNC(=O)[C@@H]1CCCN1C(=O)[C@@H](CC(=O)N1CC[C@H](N)C1)NS(=O)(=O)Cc1ccccc1` [Compound 2.12], for which the Ki in assay [1] was 1.69 µM; in assay [2], over 50 µM; in assay [3] it was over 100 µM; in assay [4], over 30 µM; in assay [5], over 100 µM; in [6], over 25 µM. Further, the Ki in [7] was over 25 µM; at human Factor Xa it was 0.014 µM; in [8], over 20 µM; in assay [9], 0.0029 µM.
